Test system: Human prostatic carcinoma PC-3 cells
Assay: Apoptosis assay (cell death detection ELISA, nucleosome level) in PC-3 cells
Format: cell-based
Description: Human prostatic carcinoma PC-3 cells (ATCC, CRL-1435, USA) were used for apoptosis assay. The apoptosis test was conducted following the method as described by Guseva et al. […] The cell death of each test was detected by ELISA following the method as provided by Holdenrieder et al. (Holdenrieder et al., Quantification of nucleosomes in serum by the cell death detection ELISA^plus. Roche Applied Science Biochemica. 1: 25-27, 2002). The cells were collected after incubation, and then lysed and evaluated for nucleosome levels by ELISA kit (Cell Death Detection ELISA^PLUS Kit, Roche, 1774425). The read absorbance at 405 nm was measured for each test compound or a vehicle and the values of apoptosis % were calculated. […] Assay Reference FasL (3 nM) was added to the control wells (named as Total wells) and the Incubation buffer to the Blank wells. HK-06-[…] at a concentration of 8 μM or 3 μM was added to each well, and the plate was then incubated in Antagonist buffer for 16 hours at 37° C., 5% CO2. The nucleosome level of each well was determined by the cell death detection kit. […] The plate was then incubated in Agonist buffer for 16 hours at 37° C., 5% CO2. The nucleosome level of each well was determined by the cell death detection kit. In the assays for SAHA and HK-06-[…], SAHA at a concentration of 0.1 μM, 1 μM, 10 μM, 100 μM or 300 μM was replaced for the NaB. The HK-06-[…] at a concentration of 4.5 μM was used. Results are expressed as a percentage of the group treated with the test compound as compared to that of the control group.

**Q.** With `CCCC(=O)[O-].[Na+]` [NaB, sodium butyrate] as the compound, how does the “means of Apoptosis %” value (0.3 mM NaB only (FIG. 1B)) read?
**A.** 4%

**Q.** What about the “means of Apoptosis %” value (0.3 mM NaB only as printed (FIG. 1C)) of the same compound?
**A.** 3%

**Q.** What about the “means of Apoptosis %” value (1 mM NaB only, 16 hours, relative to 3 nM Fas Ligand = 100% (FIG. 1A)) of the same compound?
**A.** 29.67%

**Q.** With `C[C@H](CCC1(O)O[C@H]2C[C@H]3[C@@H]4CC=C5C[C@@H](O[C@@H]6O[C@H](CO)[C@@H](O[C@@H]7O[C@@H](C)[C@H](O[C@@H]8O[C@@H](C)[C@H](O)[C@@H](O)[C@H]8O)[C@@H](O)[C@H]7O)[C@H](O)[C@H]6O[C@@H]6O[C@@H](C)[C@H](O)[C@@H](O)[C@H]6O)CC[C@]5(C)[C@H]4CC[C@]3(C)[C@H]2[C@@H]1C)CO[C@@H]1O[C@H](CO)[C@@H](O)[C@H](O)[C@H]1O` (stereo partly drawn) [HK-06-D01, (25R)-26-O-beta-D-glucopyranosyl-22-hydroxy-5-ene-furostan-3beta, 26-diol-3-O-alpha-L-rhamnopyranosyl-(1→4)-alpha-L-rhamnopyranosyl-(1→4)-[alpha-L-rhamnopyranosyl-(1→2)]-beta-D-glucopyranoside] as the compound, how does the “means of Apoptosis %” value (8 uM HK-06-D01 only (FIG. 1B)) read?
**A.** 51%

**Q.** And the “means of Apoptosis %” value (8 uM HK-06-D01 only as printed (FIG. 1C))?
**A.** 5%

**Q.** What about the “means of Apoptosis %” value (8 uM HK-06-D01 only, 16 hours, relative to 3 nM Fas Ligand = 100% (FIG. 1A)) of the same compound?
**A.** 46.67%

Source: patent US20120058961A1, “Pharmaceutical Composition for Treating Cancers” (HENKAN PHARMACEUTICAL CO., LTD., priority 2010, published 2012)
